US10252997B2, “Monocyclic compound” (Takeda Pharmaceutical Company Limited, priority 2015, dated 2019)

Assays:
Human ACC1 = molecular target: T1, Human ACC1 (Homo sapiens, UniProt Q13085); test: Measurement of ACC1 inhibitory activity (Malonyl-CoA produced, RapidFire-mass spectrometry); type: biochemical; conditions: 10 μM of the test compound; read-out: ACC1 inhibitory rate (%) at 10 μM
T1 construct: His6 (from vector pFAST-BacHTc; purified on Ni-NTA) (N); made in house; host or cells: SF-9 insect cells, recombinant baculovirus BAC-ACC1
Protocol: (1) Cloning of Human ACC1 Gene and Preparation of Recombinant Baculovirus
Human ACC1 gene was cloned by PCR using a human liver cDNA library (Clontech) as a template and Primer 1 and Primer 2 shown below. Primer 1 and Primer 2 were prepared by adding SalI, NotI restriction enzyme recognition sequences based on the information of the base sequence of human ACC1 gene (Genbank Accession U19822).
PCR was performed using Pyrobest DNA polymerase (TAKARA BIO INC.). The obtained PCR product was cloned to pT7 Blue vector (Novagen) and after confirmation of the base sequence, digested with restriction enzymes SalI and […]. The obtained DNA fragment was inserted into pFAST-BacHTc (Invitrogen) digested with restriction enzymes SalI and […] to give expression plasmid ACC1/pFAST-BacHTc.
Using the expression plasmid ACC1/pFAST-BacHTc and BAC-TO-BAC Baculovirus Expression System (Invitrogen), virus stock BAC-ACC1 of recombinant Baculovirus was prepared.
(2) Preparation of ACC1 Protein
SF-9 cells (Invitrogen) were inoculated to a medium (10 L) for insect cells (Sf-900IISFM medium (Invitrogen) containing 5% fetal bovine serum (Trace), 50 mg/L Gentamicin (Wako Pure Chemical Industries, Ltd.) and 0.1% Pluronic F-68 (Invitrogen)) at 1.0×10^6 cells/mL, and cultured with shaking in Wave Bioreactor (GE Healthcare) at 27° C., 20 rpm, rocking angle 100, oxygen concentration 30%.
On day 2 of the culture, recombinant Baculovirus BAC-ACC1 was added, and the cells were cultured for 3 days. The culture medium was centrifuged at 4000×g for 10 min to give virus-infected cells. The cells were washed with phosphate buffered saline (Invitrogen) and centrifuged under the same conditions. The obtained cells were cryopreserved at −80° C.
The cryopreserved cells were thawed in ice, and suspended in 800 mL of 25 mM HEPES buffer (pH 7.5) containing 10% Glycerol, 0.3 M NaCl, 1 mM EDTA, 25 mM Sodium β-Glycerophosphate and 1 mM Sodium Orthovanadate, and supplemented with Complete Protease Inhibitor (Roche). The obtained suspension was homogenized two times in a polytron homogenizer (Kinematica) at 20,000 rpm for 20 sec. The obtained cell disruption solution was clarified by centrifugation at 186,000×g for 60 min, and the supernatant was passed through Ni-NTA Superflow Cartridges (5 mL) (QUIAGEN). Furthermore, it was washed with 25 mM HEPES buffer (pH 7.5) containing 20 mM Imidazole and 0.3 M NaCl, and eluted with 25 mM HEPES buffer (pH 7.5) containing 250 mM Imidazol and 0.3 M NaCl. The eluate was concentrated by Amicon Ultra-15 (Nihon Millipore K.K.) having a fraction molecular weight of 50K. The obtained concentrate was subjected to gel filtration with 50 mM HEPES buffer (pH 7.5) containing 10 mM MgCl2, 2 mM dithiothreitol, 10 mM tripotassium citrate and 0.3 M NaCl by using HiLoad 26/60 Superdex200 prep grade gel filtration column (GE Healthcare) to give ACC1. The obtained ACC1 was cryopreserved at −80° C.
(3) Measurement of ACC1 Inhibitory Activity
ACC1 obtained in the above-mentioned (2) was diluted with an enzyme reaction buffer (50 mM HEPES (pH 7.5), 10 mM MgCl2, 10 mM Tripottasium Citrate, 2 mM Dithiothreitol, 0.001% Fatty acid free BSA) to a concentration of 0.2 μg/ml, and the mixture was added to each well of a 384 well assay plate by 10 μl. A test compound dissolved in dimethyl sulfoxide (DMSO) was diluted with an enzyme reaction buffer, and the resulting solution (5 μl) was added to each well. The mixture was incubated at room temperature for 60 min. Then, a substrate solution (50 mM KHCO3, 200 μM ATP, 200 μM Acetyl-CoA, 5 μl) was added to each well, and the mixture was reacted at room temperature for 30 min. The reaction was quenched by adding a reaction quenching liquid (1.3% formic acid, 0.2 μM Malonyl-^13C3-CoA) by 60 μL each to the obtained reaction mixtures (test compound addition group).
In addition, a reaction was performed in the same manner as above and without adding the test compound (test compound non-addition group). […]

[1] = test system: collagen I gene expression level in liver; test: Inhibitory effect on liver fibrosis caused by NASH (collagen I gene expression level in liver); type: in vivo; conditions: homo low-density lipoprotein receptor deficient mouse, choline-deficient amino acid diet, oral once per day for three weeks
Protocol: The action on liver fibrosis caused by non-alcoholic steatohepatitis (NASH) was verified by the following method.
For efficacy evaluation of action on the above-mentioned fibrosis, 9-week-old, male, homo low-density lipoprotein receptor deficient mouse (Jackson Laboratories (Bar Harbor Me., USA)) was used. Specifically, a choline-deficient amino acid diet (A08111307, Research Diets, New Brunswick, N.J., USA) was fed to the above-mentioned mouse for one week, and a drug was administered for three weeks, and then the collagen I gene expression level in liver after the drug administration was measured.
For the above-mentioned drug administration group, the test compound suspended in 0.5% methylcellulose solution was orally administered by gavage using a stomach gavage needle once per day (n=8). […]
The measurement of the collagen I gene expression level in liver was performed by the following method. […] The total RNA was purified using RNeasy Mini Kit (Qiagen, Valencia, Calif., USA), and cDNA was prepared using High Capacity cDNA Reverse Transcription Kit (PN4368814, Applied Biosystems, Foster City, Calif., USA), and the collagen I gene expression level was measured (collagen type I alpha 1, Part Number 4351370, Applied Biosystems) by the quantitative PCR method (TaqMan Gene Expression Master Mix, PN4369016, Applied Biosystems). […]

inhibition at 10 µM (Human ACC1): 96%
SMILES: C[C@@H](COc1cnc(-c2ccc(Oc3cccc(OCC4CC4)c3)cc2)o1)NC(N)=O [Example 82, 1-((2S)-1-((2-(4-(3-(cyclopropylmethoxy)phenoxy)phenyl)-1,3-oxazol-5-yl)oxy)propan-2-yl)urea]
inhibitory effect on liver fibrosis caused by non-alcoholic steatohepatitis (collagen I gene expression level in liver, FIG. 1) [1]: superior inhibitory effect on liver fibrosis caused by non-alcoholic steatohepatitis
